From patent US20180055020A1, “Mice With Transgene Of iBox Peptide Inhibitor Of Group B p21-Activated Kinases” (Institute For Cancer Research d/b/a The Research Institute …, priority 2016, published 2018)

Experiments:
Assay type in all cases: cell-based, mouse
[1] = tested on: each of the tissues studied; assay: Cell proliferation on expression of the iBox transgene (preliminary experiments)
Method: Cells were plated at 2×10^3 in 96-well plates and 10 μl of 3-[4,5-dimethylthiazol-2-yl]-2,5-diphenyl tetrazolium bromide (MTT) solution was added to each well to a final concentration of 0.5 mg/ml. The reaction was stopped after 4 hours at 37° C. by adding 100 μl of solubilization solution (10% SDS in 0.01M HCl) and the samples were analyzed at 595 nm on Perkin Elmer Envision plate reader. Triplicates were performed for each sample, and experiments were performed on three occasions. […] An anti-Gst blot is shown.

[2] = tested on: Erk; assay: Immunoblot of lysates of ROSA26-iBox MEFs for signaling molecules (Erk and P-Erk); details: lysates of MEFs expressing iBox (Adeno-Cre), FIG. 5D
Method: (§1) Primary mouse embryo fibroblasts were established from E14 embryos from pregnant ROSA26-iBox mice. Cell lines were maintained in DMEM medium supplemented with 10% of FBS, 2 mM L-glutamine and 100 Um′ penicillin/streptomycin ay 37° C. in a humidified 5% CO2 incubator. To document iBox and EGFP expression, the MEFs were transduced with Adeno-Cre which removes the LSL cassette. MEFs were imaged to documents EGFP expression and lysates were probed by immunoblot to document iBox expression using anti-GST antibodies that recognize the GST protein that is fused to the N-terminus of iBox. These lysates were also probed with antibodies against Erk and P-Erk, Src and P-Src, Fak and P-Fak, as well as GAPDH.
(§2) To analyze endogenous Pak4 activity, Pak4 was immunoprecipitated from ROSA26-iBox MEFs and Protein-A-Pak4 beads were incubated with recombinant Pacsin or CRTC1 for 10 minutes at 30° C. in a buffer containing 50 mM Tris-HCl, pH 7.5, 10 mM MgCl2, 1 mM DTT, and 50 μM ATP. Reactions were terminated with hot 6×SDS/PAGE buffer and the samples were analyzed by immunoblot using anti-P-pacsin or anti-P-CRTC1 antibodies. […] Inhibition of Erk, Src, and Fak was observed.

[3] = tested on: Src; assay: Immunoblot of lysates of ROSA26-iBox MEFs for signaling molecules (Src and P-Src); details: lysates of MEFs expressing iBox (Adeno-Cre), FIG. 5D
Method: as §1, §2

[4] = tested on: Fak; assay: Immunoblot of lysates of ROSA26-iBox MEFs for signaling molecules (Fak and P-Fak); details: lysates of MEFs expressing iBox (Adeno-Cre), FIG. 5D
Method: as §1, §2

iBox: Peptide inhibitor of Group B Paks, derived from amino acids 166 to 203 of human INKA-1, linked to GST, expressed from a transgene (GLEAEDWTAALLNRGRSRQPLVLGDNCFADLVHNWMEL; GST fusion; UniProt Q96EL1 166-203, looked up, fragment)
effect of iBox transgene expression on cell proliferation [1]: inhibited cell proliferation
effect on Erk signaling (immunoblot) [2]: Inhibition
effect on Src signaling (immunoblot) [3]: Inhibition
effect on Fak signaling (immunoblot) [4]: Inhibition
